According to patent US6469177B1, “Surface active N-Halamine compounds” (Auburn University, priority 1997, dated 2002):

Tested on: S. aureus (ATCC 6538)
Test: Efficacy of N-halamine compounds against S. aureus in aqueous solution (Example 20)
Type: cell-based, Staphylococcus aureus
Settings: pH 7.0; 22 ° C.; chlorine-demand-free water; 5 or 10 milligrams/liter total chlorine
Description: The bacterial efficacies of the compounds against S. aureus (ATCC 6538) in chlorine-demand-free water were determine by using techniques employed previously in extensive detail by Williams et al., Appl. Environ. Microbial., 54:2583 (1987). Solutions containing 10^6 CFU final cell densities of bacteria were prepared and treated with the various disinfectant compounds described in examples 1-17 at either 5 or 10 milligrams/liter total chlorine concentration which was previously determined by titration using a stock solution with sodium thiosulfate. Aliquots were removed at several predetermined times, and the active halogen was quenched by sterile 0.02 normal sodium thiosulfate. Serial dilutions were made into sterile saline, and three 25 microliter aliquots of each dilution were applied to the dried surface of a Petri dish containing nutrient agar. After incubation at 37° C. for 48 hours, the three replicates for each dilution were counted and averaged. Control samples containing no disinfectant, or in some cases, unchlorinated precursor compounds, were handled in the same manner. […] Inactivation of the organism was considered to be at least 99.9999% when no colonies were detected in the thiosulfate-quenched aliquots.

C=CC(=O)OCC1(CC)COC(=O)N1Br (stereo not shown) [Polymer 1a-Br, 3-bromo-4-(acryloxymethyl)-4-ethyl-2-oxazolidinone]
Contact Time for 6-log Inactivation of S. aureus: <5 min
